In this assay the test system is IL-10−/− mouse colitis model. Put plainly: Example 3: Formula (III) and anti-p40 combination in IL-10−/− mouse colitis model. It counts as in vivo. The note with it: 21 days; Formula (III) 0.005% in chow, anti-p40 IP; vs no treatment control / either pathway alone. How it is done:
The following experiments were run to evaluate the effects of a combination treatment of Formula (III) in combination with an anti-p40 antibody on the IL-10−/− mouse colitis model compared to the single treatment alone.
Female IL-10 deficient C57CL/6 mice (aged 12 weeks at study inception) were used in this study. All animal experiments were conducted according to Swiss animal well fare law and approved by the local animal welfare authority of Zurich County (Tierversuchskommission Zürich, Zurich, Switzerland, License No. ZH256-2014).
Mice were administered either standard chow diet (Harlan Teklad Global Diets 2014, TD2014) or standard chow diet plus 0.005% of Formula (III) in the chow. Formula (III)'s schedule was ad libitum while the anti-p40 antibody was administered via an intraperitoneal injection on day 1 and then every four days for three weeks.
The compound was added and mixed to the chow powder at 0.125% concentration, anti-p40 antibody was diluted in phosphate buffered saline (2 mg/mL) (anti-p40 antibody is a murine surrogate of ustekinumab) then dosed at either 2 mg/kg (low dose) or 4 mg/kg (high dose) every four days by intraperitoneal injection. […] The mice were then treated for three (3) weeks (21-days). On Day 21, mice were sacrificed, blood and tissue samples were collected for further analysis.
Experiments were conducted as describe in Experiment 2.

As to `CCOC(=O)[C@H](Cc1ccc(-n2c(=O)c3ccncc3n(C)c2=O)c2ncccc12)NC(=O)c1c(C)cc(N2CCOC[C@@H]2C(F)(F)F)cc1F` (atropisomer, axis not shown) [Formula (III)], the body weight loss result is recorded as “improved body weight loss”.

The record behind these values is patent US20250228864A1, “THERAPIES FOR THE TREATMENT OF INFLAMMATORY BOWEL DISEASE” (Gilead Sciences, Inc., priority 2023, published 2025).
